In US5872148A, “Compositions useful as a cannabinoid receptor probe” (University of Connecticut, priority 1995, dated 1999):
pIC50: −log10 of the molar value.

Columns and labels:
[1] = target: T1, cannabinoid receptor (Rattus norvegicus, UniProt P20272); experiment: Receptor binding assay, [^3 H]CP-55,940, rat forebrain membrane, Tris buffer with bovine serum albumin; conditions: for affinity for the cannabinoid receptor (in words): demonstrated by IC50 values; for pIC50: rat forebrain membrane, 0.8 nM [^3 H]CP-55,940, 0.1% bovine serum albumin, pH 7.4, 1 hour at 30° C.
T1 construct: membrane preparations from rat forebrains; from tissue; host or cells: rat forebrain membranes
Protocol: The affinity of compositions of this invention for cannabinoid binding sites was tested by using membrane preparations from rat forebrains. A composition is tested by incubating various concentrations of the composition with approximately 50 μg of rat forebrain membrane, 20 mM Tris Buffer, 3 mM MgCl2, 1 mM EDTA (pH, 7.4) containing 0.1% bovine serum albumin, and 0.8 nM of the cannabinoid radioligand [^3 H]CP-55,940, (Dupont-NEN). Assays were incubated in Regisil-treated test tubes for 1 hour at 30° C. and were subsequently filtered on GF/C filters using a Brandell M-24 Cell Harvester. Following four washes with 20 mM Tris buffer (pH 7.4) and 3 mM MgCl2, the GF/C filters were collected, and shaken for 1 hour with 2 mL of 0.1% SDS. Ligand binding was counted on a Beckman liquid scintillation counter.
Non-specific binding was assessed from tubes containing 250 nM desacetyllevo-nantradol by the method described in W. A. Devane et al., Determination and Characterization of a Cannabinoid Receptor in Rat Brain, Mol. Pharmacol., 34:605 (1988). Data were collected from 3 experiments performed on 11-hydroxy-7'-azido-1',1'-dimethylheptyl-Δ^8 -THC and on 11-hydroxy-7'-isothiocyanate-1',1'-dimethyl-heptyl-Δ^8 -THC, each.

[2] = target: T1, cannabinoid receptor; experiment: Receptor inactivation test (equilibration / photoirradiation), rat forebrain membranes; type: binding; conditions: 1 hour at 30° C., azide: UV irradiated 13 minutes, washed
Protocol: The ability of affinity ligands to inactivate the cannabinoid receptor in vitro was tested through photoirradiation experiments. All procedures involving affinity ligands were conducted in the dark using only a safety light. Rat forebrain membranes (1-3 mg) in 20 mM Tris Buffer, 3 mM MgCl2, and 1 mM EDTA (pH 7.4) were incubated with an appropriate amount of either 11-hydroxy-7'-azido-1',1'-dimethylheptyl-Δ^8 -THC or 11-hydroxy-7'-isothiocyanate-1',1'-dimethyl-heptyl-Δ^8 -THC, in a six-well culture plate for 1 hour at 30° C. At the end of the equilibration membranes incubated with 11-hydroxy-7'-azido-1',1'-dimethylheptyl-Δ^8 -THC were placed on ice and irradiated for 13 minutes with UV light. Membranes incubated with either of the two compounds were then pelleted using a bench top microcentrifuge. The pellets were subsequently washed at least three times with the working buffer containing 1 mg/mL bovine serum albumin, allowing at least 10 minutes between each wash for equilibration. The final pellets were resuspended in the working buffer and assayed for cannabinoid binding activity by the method of Devane et al., referenced above.

[3] = system: male ICR (Institute of Cancer Research) mice; experiment: Sedation (decreased locomotor activity) in mice; type: in vivo; conditions: intravenous injection; for ED50: Mus musculus, read-out: Locomotion Inhibition, potency (ED50 value)
Protocol: (§1) 5'-azido-THC was evaluated in vivo and compared to the parent compound (-)-Δ^8 -THC for cannabimimetic activity. Both analogs were tested in male ICR (Institute of Cancer Research) mice (Harlan, Frederick, Md.) following intravenous injection, for their abilities to produce sedation (decreased locomotor activity) and catalepsy (induction of ring immobility) as measures of drug-induced behavioral effects. They were also evaluated in the same mice for their abilities to produce hypothermia and antinociceptive activity in the mouse tail-flick assay.
(§2) The results obtained are shown in Table I. Dose-response data were analyzed statistically by ANOVA, and the potency (ED50 value) and efficacy (maximum effect) were determined. The maximum effects given represent percent inhibition (of locomotor activity), ° C. (of hypothermia), percent immobility (of catalepsy) and percent MPE (maximum possible effect of latency of antiociception procedure).
(§3) This evaluation was performed by methods described in M. D. Compton et al., J. Med. Chem., 34:3310 (1991), A. Makriyannis et al., Life Sci., 47:2173 (1990), and A. Charalandous et al., Pharmacol. Biochem. Behav., 40:509 (1991).

[4] = system: male ICR (Institute of Cancer Research) mice; experiment: Hypothermia in mice; type: in vivo; conditions: for ED50: Mus musculus, read-out: Hypothermia (Δtemperature), potency (ED50 value); for ED50 / Hypothermia (Δtemperature), efficacy (maximum effect): intravenous injection, mice
Protocol: as §1, §2, §3

[5] = system: male ICR (Institute of Cancer Research) mice; experiment: Catalepsy (induction of ring immobility) in mice; type: in vivo; conditions: for ED50: Mus musculus, read-out: Catalepsy Immobility, potency (ED50 value); for ED50 / Catalepsy Immobility, efficacy (maximum effect), percent immobility: intravenous injection, mice
Protocol: as §1, §2, §3

[6] = system: male ICR (Institute of Cancer Research) mice; experiment: Antinociceptive activity in the mouse tail-flick assay; type: in vivo; conditions: intravenous injection; for ED50: Mus musculus, read-out: Antinociception MPE, potency (ED50 value)
Protocol: as §1, §2, §3

[7] = target: T1, cannabinoid receptor; experiment: Alternate affinity test, [^3 H]CP-55,940, rat forebrain membrane, potassium diethyl malonate buffer with β-cyclodextrin; type: binding; conditions: 100 fmol/mL [^3 H]CP-55,940, 0.01% β-cyclodextrin, pH 7.4, 1 hour at 30° C.
Protocol: An alternate affinity test used approximately 30 μg of rat forebrain membrane in a buffer containing 20 mM potassium diethyl malonate (pH 7.4), 3 mM MgCl2, 0.01% β-cyclodextrin, and 100 fmol/mL [^3 H]CP-55,940, (Dupont-NEN). The assays were incubated in Regisil-treated test tubes for 1 hour at 30° C. and were subsequently filtered on GF/C filters. Just prior to filtration, 200 μL of 50 mg/mL bovine serum albumin is added. Following filtration, ligand binding was counted on a Beckman liquid scintillation counter.
Non-specific binding was assessed from tubes containing 100 nM desacetyllevo-nantradol by the method described in W. A. Devane et al., Determination and Characterization of a Cannabinoid Receptor in Rat Brain, Mol. Pharmacol., 34:605 (1988).

[8] = target: T1, cannabinoid receptor; experiment: Alternate receptor inactivation test (equilibration and UV irradiation), rat forebrain membrane; type: binding; conditions: 1 hour at 30° C., shortwave UV light
Protocol: In an alternate receptor inactivation test, 0.5-3 mg of rat forebrain membrane was incubated with (-)5'-azido-Δ^8 -THC, previously resuspended in 5% β-cyclodextrin in 12-well tissue culture plates containing 1 mL of 20 mM potassium diethyl malonate (pH 7.4) and 0.01% β-cyclodextrin. The assay was incubated for 1 hour at 30° C. and then was placed on ice and irradiated for 13 minutes with shortwave UV light from a UVGL-25 mineralight at 10 cm distance […].

[9] = milligram/kilogram basis, vs (-)-Δ^8 -THC

T1 sequence (P20272 whole entry): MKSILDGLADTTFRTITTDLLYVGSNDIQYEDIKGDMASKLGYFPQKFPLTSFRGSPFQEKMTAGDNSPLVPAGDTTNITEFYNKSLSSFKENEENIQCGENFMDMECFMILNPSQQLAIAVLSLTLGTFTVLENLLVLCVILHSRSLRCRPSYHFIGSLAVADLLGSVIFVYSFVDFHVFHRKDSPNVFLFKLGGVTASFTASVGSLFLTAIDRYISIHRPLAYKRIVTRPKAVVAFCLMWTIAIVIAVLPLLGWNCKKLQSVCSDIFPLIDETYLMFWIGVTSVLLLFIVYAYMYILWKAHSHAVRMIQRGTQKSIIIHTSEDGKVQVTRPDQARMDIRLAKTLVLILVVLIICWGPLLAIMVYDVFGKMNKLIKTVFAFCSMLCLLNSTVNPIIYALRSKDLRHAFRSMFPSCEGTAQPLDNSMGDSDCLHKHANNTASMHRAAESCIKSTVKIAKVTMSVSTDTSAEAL

Structure (SMILES)	affinity for the cannabinoid receptor (in words) [1]	pIC50 [1]	ability to inactivate the cannabinoid receptor in vitro [2]	ED50 [3]	Locomotion Inhibition, efficacy (maximum effect), percent inhibition [3]	ED50 [4]	Hypothermia (Δtemperature), efficacy (maximum effect) [4]	times more potent than the parent compound (hypothermia) [4, 9]	ED50 [5]	Catalepsy Immobility, efficacy (maximum effect), percent immobility [5]	times more potent than the parent compound (catalepsy) [5, 9]	ED50 [6]	Antinociception, efficacy (maximum effect), percent MPE (maximum possible effect) [6]	pIC50 [7]	irreversible inactivation of the receptors [8]	specific receptor binding in equilibrated and irradiated membranes [8]
CC(C)(CCCCCCN=[N+]=[N-])c1cc(O)c2c(c1)OC(C)(C)[C@@H]1CC=C(CO)C[C@@H]21 [11-hydroxy-7'-azido-1',1'-dimethylheptyl-Δ^8 -THC]	high affinity	8.60	completely inactivate the cannabinoid receptor	–	–	–	–	–	–	–	–	–	–	–	–	–
CC(C)(CCCCCCN=C=S)c1cc(O)c2c(c1)OC(C)(C)[C@@H]1CC=C(CO)C[C@@H]21 [11-hydroxy-7'-isothiocyanate-1',1'-dimethylheptyl-Δ^8 -THC]	high affinity	8.82	completely inactivate the cannabinoid receptor	–	–	–	–	–	–	–	–	–	–	–	–	–
CC1=CC[C@@H]2[C@@H](C1)c1c(O)cc(CCCCCN=[N+]=[N-])cc1OC2(C)C [(-)5'-azido-Δ^8 -THC]	–	–	–	0.2 mg/kg	73%	0.8 mg/kg	-3.8 °C	19 times	0.8 mg/kg	57%	6.5 times	0.1 mg/kg	100%	7.51	did not irreversibly inactivate the receptors	no specific receptor binding was observed
CCCCCc1cc(O)c2c(c1)OC(C)(C)[C@@H]1CC=C(C)C[C@@H]21 [(-)-Δ^8 -THC, reference compound]	–	–	–	1.9 mg/kg	79%	15.5 mg/kg	-5.9 °C	–	5.2 mg/kg	58%	–	1.5 mg/kg	100%	–	–	–
